This test deals with T1, recombinant DDB1-CRBN (Homo sapiens, UniProt Q96SW2).
T1 construct: His; made in house; host or cells: High Five insect cells (baculovirus made and propagated in SF9 cells)
Put plainly: Fluorescence polarization-based competition assay for CRBN binding. Particulars: 200 nM CRBN-DDB1, 20 nM pomalidomide-fluorescein tracer 16, triplicates; read-out: FP_CRBN_binding: CRBN binding affinity, EC50. As to the method:
Prior to screening the compound library in the isogenic CPA, we assessed their CRBN binding affinities using a fluorescence-polarization-based competition assay with recombinant DDB1-CRBN and the fluorescent tracer 16 (Figure S2). […] We also assessed the cytotoxicity of the CRBN binders in RKO wild-type (WT) cells to determine the appropriate treatment concentration. […]
Fluorescence Polarization‐based competition assay
Fluorescence Polarization assays were performed in 384‐well, Low Volume, Black, Round Bottom, Polystyrene Nonbinding surface Microplates (Corning, #4514). The test compounds were incubated with 200 nM CRBN‐DDB1 and 20 nM Pomalidomide‐fluorescein tracer 16 in 50 mM Tris‐HCl pH 7.5, 200 mM NaCl, 1 mM DTT, 0.02% Triton X‐ 100, and 0.1 µg/µL Bovine Serum Albumin (Sigma Aldrich, #A7030) in a total volume of 25 µL. Fluorescence polarization values were determined with a PerkinElmer Envision reader with FITC FP dual mirror and FITC FP 480 excitation filter and FITC FP 535 emission filters. Fluorescence polarization values of a 10x serial dilution (10 nM to 100 µM) of the test compounds were determined in triplicates. EC50 values were calculated with GraphPad Prism software (version 10.0.2) with a non‐linear fit function (4PL sigmoidal curve fit) adjusting the bottom constrain to the FP value of free tracer. […]
On the technique in general: In fluorescence polarisation assays a small probe gives low polarisation when free and higher when bound to something large.
On to `C[C@@H](O)CN(C)S(=O)(=O)Oc1cccc(Nc2ccc3c(c2)C(=O)N(C2CCC(=O)NC2=O)C3=O)c1` (stereo partly drawn) [FL1-1], for which the concentration for a half-maximal effect (EC50) (in general, the concentration at which the effect is half-maximal) turned out to be 321 nM. For `CC(C)(O)C1CCN(S(=O)(=O)Oc2cccc(Nc3ccc4c(c3)C(=O)N(C3CCC(=O)NC3=O)C4=O)c2)C1` (stereo not drawn) [FL1-4], the EC50 turned out to be 481 nM.

Regarding `O=C1CCC(N2C(=O)c3ccc(Nc4cccc(OS(=O)(=O)N5CCOCC5)c4)cc3C2=O)C(=O)N1` (stereo not drawn) [FL1-5], the EC50 was determined as 301 nM. `C[C@@H]1C[C@H](C)CN(S(=O)(=O)Oc2cccc(Nc3ccc4c(c3)C(=O)N(C3CCC(=O)NC3=O)C4=O)c2)C1` (stereo partly drawn) [FL1-6]: the EC50 came out at 3030 nM. Regarding `CC1(C)CN(S(=O)(=O)Oc2cccc(Nc3ccc4c(c3)C(=O)N(C3CCC(=O)NC3=O)C4=O)c2)CCS1(=O)=O` (stereo not drawn) [FL1-7], the EC50 worked out at 522 nM. The figure for `CC1(C)CN(S(=O)(=O)Oc2cccc(Nc3ccc4c(c3)C(=O)N(C3CCC(=O)NC3=O)C4=O)c2)CC2(CCOC2)O1` (stereo not drawn) [FL1-8] is 930 nM; for `O=C1CCC(N2C(=O)c3ccc(Nc4cccc(OS(=O)(=O)N5CC6(CNC(=O)N6)C5)c4)cc3C2=O)C(=O)N1` (stereo not drawn) [FL1-9] it is 435 nM; for `O=C1CCC(N2C(=O)c3ccc(Nc4cccc(OS(=O)(=O)N5C[C@@H](F)[C@H](F)C5)c4)cc3C2=O)C(=O)N1` (stereo partly drawn) [FL1-10] it is 607 nM.

On to `CN(Cc1ncnn1C)S(=O)(=O)Oc1cccc(Nc2ccc3c(c2)C(=O)N(C2CCC(=O)NC2=O)C3=O)c1` (stereo not drawn) [FL1-11], for which the EC50 is 509 nM. The figure for `Cc1cn2c(n1)CN(S(=O)(=O)Oc1cccc(Nc3ccc4c(c3)C(=O)N(C3CCC(=O)NC3=O)C4=O)c1)CC2` (stereo not drawn) [FL1-13] is 482 nM; for `CN(Cc1ccc2[nH]nnc2c1)S(=O)(=O)Oc1cccc(Nc2ccc3c(c2)C(=O)N(C2CCC(=O)NC2=O)C3=O)c1` (stereo not drawn) [FL1-15] it is 1170 nM. For `O=C1CCC(N2C(=O)c3ccc(Nc4cccc(OS(=O)(=O)N5CCC(c6ccncc6)CC5)c4)cc3C2=O)C(=O)N1` (stereo not drawn) [FL1-16], the 50% effective concentration (EC50) came out at 682 nM. The figure for `CC1c2cc(F)ccc2CCN1S(=O)(=O)Oc1cccc(Nc2ccc3c(c2)C(=O)N(C2CCC(=O)NC2=O)C3=O)c1` (stereo not drawn) [FL1-17] is 1840 nM; for `CC1c2cccn2CCN1S(=O)(=O)Oc1cccc(Nc2ccc3c(c2)C(=O)N(C2CCC(=O)NC2=O)C3=O)c1` (stereo not drawn) [FL1-19] it is 898 nM. With `CN(Cc1ccc2c(c1)OCO2)S(=O)(=O)Oc1cccc(Nc2ccc3c(c2)C(=O)N(C2CCC(=O)NC2=O)C3=O)c1` (stereo not drawn) [FL1-20] the figure was 1470 nM; with `CN(C1CC1)S(=O)(=O)Oc1cccc(Nc2ccc3c(c2)C(=O)N(C2CCC(=O)NC2=O)C3=O)c1` (stereo not drawn) [FL1-21], 1050 nM. As to `C[C@@H](O)CN(C)S(=O)(=O)Oc1ccc(Nc2ccc3c(c2)C(=O)N(C2CCC(=O)NC2=O)C3=O)cc1` (stereo partly drawn) [FL2-1], the EC50 turned out to be 445 nM. With `O=C1CCC(N2C(=O)c3ccc(Nc4ccc(OS(=O)(=O)N5CC(CCO)C5)cc4)cc3C2=O)C(=O)N1` (stereo not drawn) [FL2-2], the half-maximal effective concentration (EC50) amounted to 675 nM. Take `CC(C)(O)C1CCN(S(=O)(=O)Oc2ccc(Nc3ccc4c(c3)C(=O)N(C3CCC(=O)NC3=O)C4=O)cc2)C1` (stereo not drawn) [FL2-4]: the EC50 amounted to 770 nM. Take `O=C1CCC(N2C(=O)c3ccc(Nc4ccc(OS(=O)(=O)N5CCOCC5)cc4)cc3C2=O)C(=O)N1` (stereo not drawn) [FL2-5]: the EC50 is 458 nM. With `C[C@@H]1C[C@H](C)CN(S(=O)(=O)Oc2ccc(Nc3ccc4c(c3)C(=O)N(C3CCC(=O)NC3=O)C4=O)cc2)C1` (stereo partly drawn) [FL2-6] the figure was 4220 nM; with `CC1(C)CN(S(=O)(=O)Oc2ccc(Nc3ccc4c(c3)C(=O)N(C3CCC(=O)NC3=O)C4=O)cc2)CCS1(=O)=O` (stereo not drawn) [FL2-7], 731 nM; with `CC1(C)CN(S(=O)(=O)Oc2ccc(Nc3ccc4c(c3)C(=O)N(C3CCC(=O)NC3=O)C4=O)cc2)CC2(CCOC2)O1` (stereo not drawn) [FL2-8], 2590 nM.

Take `O=C1CCC(N2C(=O)c3ccc(Nc4ccc(OS(=O)(=O)N5CC6(CNC(=O)N6)C5)cc4)cc3C2=O)C(=O)N1` (stereo not drawn) [FL2-9]: the EC50 was 414 nM. In the case of `O=C1CCC(N2C(=O)c3ccc(Nc4ccc(OS(=O)(=O)N5C[C@@H](F)[C@H](F)C5)cc4)cc3C2=O)C(=O)N1` (stereo partly drawn) [FL2-10], the concentration for a half-maximal effect (EC50) is 1270 nM. With `CN(Cc1ncnn1C)S(=O)(=O)Oc1ccc(Nc2ccc3c(c2)C(=O)N(C2CCC(=O)NC2=O)C3=O)cc1` (stereo not drawn) [FL2-11], the half-maximal effective concentration (EC50) is 617 nM. The figure for `O=C1CCC(N2C(=O)c3ccc(Nc4ccc(OS(=O)(=O)N5CCC(c6ccco6)C5)cc4)cc3C2=O)C(=O)N1` (stereo not drawn) [FL2-12] is 4780 nM; for `Cc1cn2c(n1)CN(S(=O)(=O)Oc1ccc(Nc3ccc4c(c3)C(=O)N(C3CCC(=O)NC3=O)C4=O)cc1)CC2` (stereo not drawn) [FL2-13] it is 526 nM; for `CN(Cc1ccc2[nH]nnc2c1)S(=O)(=O)Oc1ccc(Nc2ccc3c(c2)C(=O)N(C2CCC(=O)NC2=O)C3=O)cc1` (stereo not drawn) [FL2-15] it is 1650 nM. With `O=C1CCC(N2C(=O)c3ccc(Nc4ccc(OS(=O)(=O)N5CCC(c6ccncc6)CC5)cc4)cc3C2=O)C(=O)N1` (stereo not drawn) [FL2-16], the concentration for a half-maximal effect (EC50) was determined as 1970 nM.

As for `CC1c2cc(F)ccc2CCN1S(=O)(=O)Oc1ccc(Nc2ccc3c(c2)C(=O)N(C2CCC(=O)NC2=O)C3=O)cc1` (stereo not drawn) [FL2-17], the EC50 was found to be 1290 nM.

Regarding `CN(C)c1ncc(CN(C)S(=O)(=O)Oc2ccc(Nc3ccc4c(c3)C(=O)N(C3CCC(=O)NC3=O)C4=O)cc2)cn1` (stereo not drawn) [FL2-18], the concentration giving a half-maximal response (EC50) came to 872 nM. With `CC1c2cccn2CCN1S(=O)(=O)Oc1ccc(Nc2ccc3c(c2)C(=O)N(C2CCC(=O)NC2=O)C3=O)cc1` (stereo not drawn) [FL2-19] the figure was 1050 nM. Take `CN(Cc1ccc2c(c1)OCO2)S(=O)(=O)Oc1ccc(Nc2ccc3c(c2)C(=O)N(C2CCC(=O)NC2=O)C3=O)cc1` (stereo not drawn) [FL2-20]: the EC50 worked out at 2620 nM. As to `CN(C1CC1)S(=O)(=O)Oc1ccc(Nc2ccc3c(c2)C(=O)N(C2CCC(=O)NC2=O)C3=O)cc1` (stereo not drawn) [FL2-21], the concentration giving a half-maximal response (EC50) turned out to be 1140 nM. With `CC(O)CN(C)S(=O)(=O)Oc1cccc(Nc2cccc3c2C(=O)N(C2CCC(=O)NC2=O)C3=O)c1` (stereo not drawn) [FL3-1], the concentration giving a half-maximal response (EC50) turned out to be 301 nM. For `O=C1CCC(N2C(=O)c3cccc(Nc4cccc(OS(=O)(=O)N5CC(CCO)C5)c4)c3C2=O)C(=O)N1` (stereo not drawn) [FL3-2], the EC50 worked out at 408 nM. Turning to `CC(C)(O)C1CCN(S(=O)(=O)Oc2cccc(Nc3cccc4c3C(=O)N(C3CCC(=O)NC3=O)C4=O)c2)C1` (stereo not drawn) [FL3-4], the EC50 is 446 nM.

Consider `O=C1CCC(N2C(=O)c3cccc(Nc4cccc(OS(=O)(=O)N5CCOCC5)c4)c3C2=O)C(=O)N1` (stereo not drawn) [FL3-5], for which the EC50 worked out at 214 nM. Regarding `C[C@@H]1C[C@H](C)CN(S(=O)(=O)Oc2cccc(Nc3cccc4c3C(=O)N(C3CCC(=O)NC3=O)C4=O)c2)C1` (stereo partly drawn) [FL3-6], the 50% effective concentration (EC50) was 2770 nM. `CC1(C)CN(S(=O)(=O)Oc2cccc(Nc3cccc4c3C(=O)N(C3CCC(=O)NC3=O)C4=O)c2)CCS1(=O)=O` (stereo not drawn) [FL3-7]: the EC50 came out at 348 nM. The figure for `CC1(C)CN(S(=O)(=O)Oc2cccc(Nc3cccc4c3C(=O)N(C3CCC(=O)NC3=O)C4=O)c2)CC2(CCOC2)O1` (stereo not drawn) [FL3-8] is 911 nM; for `O=C1CCC(N2C(=O)c3cccc(Nc4cccc(OS(=O)(=O)N5CC6(CNC(=O)N6)C5)c4)c3C2=O)C(=O)N1` (stereo not drawn) [FL3-9] it is 330 nM.

For `O=C1CCC(N2C(=O)c3cccc(Nc4cccc(OS(=O)(=O)N5C[C@@H](F)[C@H](F)C5)c4)c3C2=O)C(=O)N1` (stereo partly drawn) [FL3-10], the concentration for a half-maximal effect (EC50) is 582 nM. `CN(Cc1ncnn1C)S(=O)(=O)Oc1cccc(Nc2cccc3c2C(=O)N(C2CCC(=O)NC2=O)C3=O)c1` (stereo not drawn) [FL3-11]: the EC50 worked out at 449 nM.

Values taken from PMC10764104, “Discovery of Molecular Glue Degraders via Isogenic Morphological Profiling” (ACS Chemical Biology, 2023).
